Values joined by “and” are separate entries in the source; they are usually repeats but may differ in a detail not shown here. Equal values may be shown once.

The target of test [1] is W9 probe (tandem repeats of an oligonucleotide with a 9 bp AT-tract). The test can be described thus: DNase I footprinting on probe W9. The test is classed as binding. An excerpt: DNase I cleavage pattern in the presence of P9 and P7. Ligand concentrations are indicated at the top of each lane. The position of each of the AT-tracts is indicated by square brackets. […] This probe is composed of head-to-tail tandem repeats of an oligonucleotide with a 9 bp AT-tract.
Synthetic oligonucleotides […] and […] were hybridized to obtain the W9 probe, oligomerized by ligation and digested with BamHI and BglII to obtain different tandem repeats. The following oligonucleotides were prepared identically: GAF31 is composed of the oligonucleotides […] and […] and, BrownI of oligonucleotides […] and […]. Fragments were purified on low-melt agarose gels and then cloned into a modified pSP64 vector, cut by BamHI and BglII. End-labeling was carried out following digestion with HindIII and a fill-in reaction with Klenow DNA polymerase. The labeled plasmid was cut with PvuII and the target fragments purified from low-melting agarose gels. The 657 bp EcoR1/Hinf1 fragment of the Drosophila histone SAR was cloned into the SmaI site of the modified pSP64 plasmid. This SAR probe was end-labeled following-digestion with EcoR1, then cut with ClaI and the resulting 347 bp fragment purified from low-melting agarose gels.
All reactions were performed in a total volume of 40 μl. A polyamide stock solution or buffer (for reference lanes) was added to an assay buffer containing 20 kcpm radiolabeled DNA, affording final concentrations of 10 mM Tris-HCl (pH 7.4), 10 mM KCl, 10 MM MgCl, 5 mM CaCl2, 0.5 mM EDTA, 0.5 mM EGTA, 1 mM DTT and 0.1% digitonine. The solutions were allowed to equilibrate for at least 2 h at room temperature. Footprinting reactions were initiated by the addition of 2 μl of a DNase stock solution (containing −100 μg DNase I in buffer) and allowed to proceed for 2 min at room temperature. The reactions were stopped by addition of 10 μl of a solution containing 1.25 M NaCl, 100 mM EDTA. Next, 5 μl of a 1% SDS solution was added, followed by 2 μl of a solution containing 1 μg poly(dA-dT), 1 μg salmon sperm DNA and 10 μg glycogen and the DNA was ethanol precipitated (20 min at −20 C.). The reactions were resuspended in 4 μl of 80% formamide loading buffer, denatured 10 min at 85 C., cooled on ice and electrophoresed on 8% polyacrylamide denaturing gels (5% cross-link, 8 M urea) at 30 W for 1 h. The gels were dried and exposed o/n at −70 C.

Test [2] concerns GAF binding site from the Ubx promoter. In words: DNase I footprinting on Ubx GAF binding site (GAF31 probe). Also on record: species or system Drosophila melanogaster. As to conditions: same probe as bw^D repeats. An excerpt: A footprint experiment was therefore carried out with this protein. The DNA probe (GAF31) used for this purpose contains besides the (AAGAG)2 motif (the target of P31) a typical promoter proximal GAF binding site derived from the Ubx gene (Biggin et al., 1988). This Ubx site contains the pentameric consensus sequence GAGAG of GAF (Omichinski et al., 1997). […] Selective Staining of GAGAA Satellite V in Nuclei and Polytene Chromosomes:
Synthetic oligonucleotides […] and […] were hybridized to obtain the W9 probe, oligomerized by ligation and digested with BamHI and BglII to obtain different tandem repeats. The following oligonucleotides were prepared identically: GAF31 is composed of the oligonucleotides […] and […] and, BrownI of oligonucleotides […] and […]. Fragments were purified on low-melt agarose gels and then cloned into a modified pSP64 vector, cut by BamHI and BglII. End-labeling was carried out following digestion with HindIII and a fill-in reaction with Klenow DNA polymerase. The labeled plasmid was cut with PvuII and the target fragments purified from low-melting agarose gels. The 657 bp EcoR1/Hinf1 fragment of the Drosophila histone SAR was cloned into the SmaI site of the modified pSP64 plasmid. This SAR probe was end-labeled following-digestion with EcoR1, then cut with ClaI and the resulting 347 bp fragment purified from low-melting agarose gels. […]

`CN(C)CCCNC(=O)CCNC(=O)c1cc(NC(=O)c2cc(NC(=O)c3cc(NC(=O)CCNC(=O)c4cc(NC(=O)c5cc(NC(=O)c6cccn6C)cn5C)cn4C)cn3C)cn2C)cn1C` [Compound P9, PyPyPy-β-PyPyPy-β-Dp]: the “affinity for AT-tracts of 9 Ws (in words)” value in test [1] is given as “subnanomolar affinity”. Further, the “better affinity for W9 than P7” value in test [1] (P9 versus P7, footprints on W9) was 100 fold. Also, the Kd in test [1] (apparent binding affinity, DNase I footprinting, probe W9, read-out: Kdapp W9) was ~0.75 nM and 0.75 nM.

Take `CN(C)CCCNC(=O)CCNC(=O)c1nc(NC(=O)CCNC(=O)c2nc(NC(=O)CCNC(=O)c3cc(NC(=O)c4nc(NC(=O)CCNC(=O)c5nccn5C)cn4C)cn3C)cn2C)cn1C` [Compound P31, Im-β-Im-Py-β-Im-β-Im-β-Dp]: the “ligand concentration up to which no binding is noted at the Ubx GAF site” value in test [2] is given as greater than 25 nM.

These data come from patent US20030157715A1, “Modulation of chromosome function by chromatin remodeling agents” (priority 2000, published 2003).
